In brackets after ≈: the same amount, converted by molar mass.

Data set [1] relates to A549 cells xenograft. The experiment in a line: In vivo anti-tumor activity, A549 nude mouse model. The conditions noted are these: for Weights (g) After treatment: body weight after treatment; for Weights (g) Before treatment: body weight before treatment.
Procedure: The nude mice were fed in the SPF-system, six mice in a cage. The nude mice were provided with standard food and water, maintained in the light and dark cycling conditions (12/12 h), room temperature 25±2° C., humidity 50±10%. The water and beddings were steriled and changed every day. The mice were fed in the maintenance room for a week before the experiments.
Accurately weighed a certain amount of injection grade doxorubicin powder, added saline to obtain a 0.4 mg/mL test solution. The test solution is prepared avoiding light and handy for use.
Human non-small cell lung cancer cell line A549 was resuscitated. The ratio of FBS in the culture was increased from 6% to 10%, so as to make the cells proliferated rapidly. When the cell coverage in the culture flask reached 80% or so (i.e., logarithmic growth phase), the A549 cells were digested and suspended. Using autoclaved PBS to wash the cells twice to remove the residual culture medium. And then the cells were resuspended with PBS and adjusted the cells concentration to 1×10^7 cells/mL.
After the mice accustomed to the environment, under steriled condition, using disposable syringe to transfer A549 cells (1×10^7/mL) and subcutaneously inoculated in the flank of nude mice. 0.2 ml of suspension of A549 cells was injected into each nude mice and the procedure was finished within 30 min. The rest of the cells were subjected to culture and observed for any contamination, so as to provide information on whether the construction of animal model was success.
After the inoculation of cancer cells was success and the volume of xenograft tumors reached 50 to 100 mm^3, the animals were divided randomly into 5 groups (high dosage, middle dosage, low dosage, positive control, blank control) and each group comprised 6 mice.
The animals were administered once per day. The injection volume was adjusted according to the weight measured. The animals were administered for 12 days. Positive control group was injected with 2 mg/kg Doxorubicin. The animals were administered once every 3 days, and 4 times in the 12-day period. Blank control group was injected with saline solution.
During the administration period, the living and mental state of the mice were observed every day. Body weight and tumor size was measured and recorded. The tumor size was measured using Vernier caliper and tumor volumes were calculated using the formula: V (mm^3)=½×L (mm)×W^2 (mm^2) in which L is the length and W is the width of the solid tumor nodules.
24 hrs after the last administration, the nude mice were sacrificed and the tumor was removed for volume measurements. Tumor inhibition rate was calculated.
Each mouse was weighted 24 hours after administration. In the end of the experiment, the mice were sacrifice by treating at the neck area. The tumor was removed for volume measurements and took photos.
The experimental data were analyzed by SPSS 13.0 software Comparison between groups were carried out by one-way ANOVA or two-sample comparison of U-test. Results were provided in mean±SE, difference with P<0.05 was deemed significant.
In data set [2] the test system is nasopharyngeal carcinoma cell line (CNE2). The data set can be described thus: MTT inhibition of CNE2 cancer cell line. It counts as cell-based. To be noted: Homo sapiens, CNE-2, CNE2, 72 hs. As to the method: (§1) 1. Preparing test solutions: taking a certain amount of compounds 5, using dimethyl sulfoxide (DMSO) to dissolve the compound, and using cell growth medium for each corresponding cell line to dilute the solution to 5 concentrations of test solutions: 500, 250, 125, 62.5, 31.25 μg/mL. The positive control doxorubicin were diluted with cell growth medium for each corresponding cell line to 3 concentrations: 5, 2.5, 1.25 μM. Seven human cancer cell lines, including five adhesive cancer cell lines: human gastric cancer cell line (MKN-45), non-small cell lung cancer cell line (A549), nasopharyngeal carcinoma cell line (CNE1, CNE2), large cell lung cancer cell line (PC-9); and two suspensive cancer cell lines: human promyelocytic leukemia cell line (HL60), human chronic myelogenous leukemia cell line (K562). All seven human cancer cell lines are purchased from Shanghai Chinese Academy of Sciences Cell Bank and stored in School of Medicine of Fujian Medical University. The aforementioned seven cancer cell lines were recovered from the liquid nitrogen, and then cultured in 25 cm^2 flasks under the corresponding culture conditions of each cell lines (see Table 2). […] OD was measured with microplate reader under wavelength of 492 nm and then the inhibition rate was calculated. […]

In data set [3] the test system is human promyelocytic leukemia cell line (HL60). The experiment in a line: MTT inhibition of HL60 cancer cell line. The data set is classed as cell-based. The conditions noted are these: HL-60, HL60, 72 hs. On the procedure: as §1
In data set [4] the test system is large cell lung cancer cell line (PC-9). The data set can be described thus: MTT inhibition of PC-9 cancer cell line. It counts as cell-based. The conditions noted are these: Homo sapiens, PC-9, 72 hs. On the procedure:
as §1

Data set [5] can be described thus: Solubility of Compound 5 when preparing the test solution. It counts as physicochemical. From the text: Its water solution (or saline solution) was acidic. […] Suitable co-solvents were selected to enhance the solubility. Studied the solubility enhancing effects of Tween-80 (final concentration 0.02-2%, v/v), PEG-400 (final concentration <40%, v/v), 1, 2-propanediol (final concentration <40%, v/v), glycerol (final concentration <30%, v/v), and CMC-Na (final concentration 1-5%, w/v). […] Considering formulations comprising tween compounds may lead to hemolysis, PEG-400 was selected as the co-solvent.

Data set [6] has as its system human gastric cancer cell line (MKN-45). The data set can be described thus: MTT inhibition of MKN-45 cancer cell line. It counts as cell-based. To be noted: MKN-45, 72 hs. As to the method:
as §1

Data set [7] has as its system non-small cell lung cancer cell line (A549). The data set can be described thus: MTT inhibition of A549 cancer cell line. It counts as cell-based. The conditions noted are these: Homo sapiens, A549, 72 hs. On the procedure:
as §1

For data set [8], the system named is human chronic myelogenous leukemia cell line (K562). The experiment in a line: MTT inhibition of K562 cancer cell line. The data set is classed as cell-based. The conditions noted are these: K562, 72 hs. On the procedure:
as §1

Data set [9] concerns nasopharyngeal carcinoma cell line (CNE1). The experiment in a line: MTT inhibition of CNE1 cancer cell line. The conditions noted are these: Homo sapiens, CNE1, 72 hs. The data set is classed as cell-based. On the procedure:
as §1

Where [10] appears, read: 2 mg/kg tail vein once every 3 days, 4 times in 12 days.
The mark [11] stands for this setting: High dosage 30 mg/kg tail vein once per day, 12 days.
The mark [12] stands for this setting: Low dosage 5 mg/kg tail vein once per day, 12 days.
Setting [13] is: Middle dosage 15 mg/kg tail vein once per day, 12 days.

Turning to `COc1cccc2c1C(=O)c1c(O)c3c(c(O)c1C2=O)C[C@@](O)(C(=O)CO)C[C@@H]3O[C@H]1C[C@H](N)[C@H](O)[C@H](C)O1` [Doxorubicin, reference compound], in [1] (setting [10]), the “Tumor Weight-inhibitions(%)” value stood at 56.8±5.6%, the “Tumor weights” value was found to be 0.220 ± 0.037 g, the “Weights (g) After treatment” value amounted to 23.6 ± 1.1 g and the “Weights (g) Before treatment” value is given as 22.7 ± 1.9 g.
In the case of `O=c1cc(-c2ccc(Oc3c(-c4ccc(O)cc4)oc4cc(O)cc(O)c4c3=O)cc2)oc2cc(O)cc(O)c12` [Compound 5, 3-(4-(5,7-dihydroxy-4-oxo-4H-benzopyran-2-yl)phenoxyl)-5,7-dihydroxy-2-(4-hydroxyphenyl)-4H-benzopyran-4-one], the IC50 was 13.3 ± 2.6 µg/mL (≈ 24.7 µM) in data set [2]; 18.3 ± 3 µg/mL (≈ 34 µM) in data set [3]; 21.8 ± 1.3 µg/mL (≈ 40.5 µM) in data set [4]; 33.2 ± 3.1 µg/mL (≈ 61.7 µM) in [6]; 13.2 ± 0.91 µg/mL (≈ 24.5 µM) in data set [7]; 16.8 ± 2.8 µg/mL (≈ 31.2 µM) in data set [8]. In data set [9], this molecule showed a 50% inhibitory concentration (IC50) of 49.3 ± 2.8 µg/mL (≈ 91.5 µM). Besides, in data set [1] (5-30 mg/kg tail vein once per day, 12 days), the “toxicity in nude mice” value is “low”. The “Tumor Weight-inhibitions(%)” value is on record as 62.2±21.3% in data set [1] (setting [11]), 36.9±6.1% in data set [1] (setting [12]) and 43.7±19.8% in data set [1] (setting [13]). In addition, the “Tumor weights” value in data set [1] (setting [11]) was 0.193 ± 0.056 g; in data set [1] (setting [12]), 0.305 ± 0.039 g; in [1] (setting [13]) it was 0.287 ± 0.101 g. For the same molecule, the “Weights (g) After treatment” value worked out at 24.4 ± 1.6 g in data set [1] (setting [11]), 23.4 ± 0.7 g in data set [1] (setting [12]) and 24.9 ± 1.0 g in data set [1] (setting [13]). Moreover, the “Weights (g) Before treatment” value in [1] (setting [11]) is recorded as 22.4 ± 1.2 g; in data set [1] (setting [12]) it was 22.8 ± 0.8 g; in data set [1] (setting [13]), 23.9 ± 1.5 g. Also, the “solubility at injection acceptable pH” value in [5] (pH adjusted to 6.0-8.0) is on record as “still quite low”. The solubility in water entry in data set [5] (water) is “poorly dissolved in water”.

Values taken from patent US20170360743A1, “BIFLAVONE COMPOUND AND USES THEREOF FOR TREATING CANCERS AND PREPARING DRUGS” (FUJIAN MEDICAL UNIVERSITY, priority 2015, published 2017).
